# Measurements from PMC8661032, “Broad-Spectrum Antibacterial Peptide Kills Extracellular and Intracellular Bacteria Without Affecting Epithelialization” (Frontiers in Microbiology, 2021).
# Residues, ends and D or L forms follow the SMILES beside them.
# Assays:
# [1] = test system: S. aureus; assay: microbe, parasite or virus in culture; details: for MIC: Staphylococcus aureus, CAMHB, 24 h, three independent experiments
# Experimental: (§1) Briefly, bacterial colonies from blood agar plates were suspended and grown in Cation-Adjusted Mueller-Hinton Broth (CAMHB, […] Ca^2+, […] Mg^2+). The bacterial suspension was adjusted to 0.5 McFarland standard (∼1 × 10^8 colony-forming units (CFU)/ml) and serial diluted 1:200 in CAMHB (∼5 × 10^5 CFU/mL). […] The suspension was plated out on blood agar plates to confirm the CFU/ml. Both the microtiter plates and the blood agar plates were incubated at 37°C for 24 h.
# [2] = test system: A. baumannii; assay: microbe, parasite or virus in culture; details: for MIC: Acinetobacter baumannii
# Experimental: as §1
# [3] = test system: P. aeruginosa; assay: microbe, parasite or virus in culture; details: for MIC: Pseudomonas aeruginosa
# Experimental: as §1
# [4] = test system: HEK293 cells
# Experimental: HEK293 cells (6,000 cells/well) were seeded in 96-well microtiter plates. After 4 h, APIM-peptides (12–48 μg/ml) were added, and the cells were incubated without change of media for up to 4 days. Viability was measured using the 3-(4,5-dimethylthiazol-2-yl)-2,5-diphenyltetrazolium bromide (MTT) assay as described ([Gilljam et al., 2009]).
# (1 picture or pasted object on this page, not shown here)
# [5] = test system: E. coli; assay: microbe, parasite or virus in culture; details: for MIC: Escherichia coli
# Experimental: as §1
# [6] = test system: E. coli; assay: Growth inhibition assay (OD600 over 24 h); type: cell-based, Escherichia coli; parameters: Reduction of viability E. coli (60 μg/ml): key to the marks not given beside the values; details: 60 μg/ml peptide, LB medium, OD600 every hour over 24 h, relative to untreated control
# Experimental: An overnight culture of Escherichia coli was diluted 1:100 in Luria-Bertani (LB) medium and allowed to grow until an optical density (OD) at 600 nm (OD600) of 0.06–0.1. APIM-peptides were prepared by serial dilution in Milli-Q H2O and kept at 4°C. Fresh LB medium (60 μl) was added to a flat-bottom microtiter plate. The bacterial suspension was diluted 1:100 in LB, and 75 μl of this suspension was added to the wells. Finally, 15 μl of APIM-peptide solution (to final concentrations 60, 120, and 240 μg/ml) or distilled water (positive control) was added to the wells, reaching a total volume of 150 μl per well. Data are presented only for the dose that separated the effect of the different peptides, i.e., 60 μg/ml. A blank sterile medium was used as negative control. The plates were incubated with shaking at 510 rpm at 37°C inside a plate reader (TECAN, Spark®), and OD was read every hour over a period of 24 h.
# The MIC for E. coli in LB medium is higher than that in CAMHB; thus, concentrations higher than the MIC given in Table 2 are used in the growth inhibition and mutagenesis assays. […]
# E. coli. Growth of E. coli in LB medium over 24 hours (Optical Density (OD) 600 nm) after addition
# of APIM-peptide variants 1-5 (60 µg/mL) at time t=0 (see Table 2). Negative (-) control is no
# bacteria added, positive (+) control is untreated bacteria.
# highest inhibition of growth.
# control (black filled line).
# [7] = test system: E. coli; assay: Rifampicin (RifR) mutagenesis assay after UV-C; type: cell-based, Escherichia coli
# Experimental: The rifampicin (Rif^R) mutagenesis assay was performed as described ([Nedal et al., 2020]). Briefly, an overnight culture of E. coli was diluted 1:1,000 and grown until an OD600 of 0.01. APIM-peptides (20 μg/ml) were added to LB media with glass beads (for uniform distribution of APIM-peptides) and incubated for 30 min at 37°C. The pellets were next collected, resuspended in 500 μl PBS, and exposed to UV-C (20 mJ/cm^2) in a six-well plate at 4°C. The unexposed bacteria (-UV) were otherwise handled exactly like the UV-exposed bacteria. Next, the cells were resuspended in LB media and incubated in a rotary shaker at 37°C at 250 rpm for 2 h before being harvested, diluted, and plated on LB with soft agar with and without rifampicin (100 μg/ml). Mutation frequency, Rif^R/10^8, is obtained as follows: (number of colonies on the rifampicin plate (Rif^R)/(number of colonies on LB plates without antibiotics), per milliliter of bacterial suspension. […]
# mutagenesis in E. coli more efficiently than the other peptide variants.
# Increase in mutation frequencies after treatment with UV-C (20 mJ/cm2) relative to spontaneous mutations frequencies using the RifR assay were determined. This increase is set to 100% for untreated control, and % reduction after addition of peptides 1-5 (20 μg/mL) are shown. Mean ± SD from three independent experiments. * p<0.05, ** p<0.005
# [8] = test system: S. epidermidis MRSE (SO-SEP9-1); details: SO-SEP9-1, 24 h
# Experimental: as §1
# [9] = test system: K. pneumoniae; assay: microbe, parasite or virus in culture; details: for MIC: Klebsiella pneumoniae
# Experimental: as §1
# [10] = SO-ECO19-1 (ESBL-CARB-A(CTX-M-24)/D(OXA-48))
smiles,measurement,setting,value
"CCC[C@@H]1C[C@@H](C(=O)N[C@@H]([C@H]2O[C@H](SC)[C@H](O)[C@@H](O)[C@H]2O)[C@H](C)Cl)N(C)C1 [Clindamycin, clindamycin]",Combination effect with 0.5× MIC betatide,[1]; ATCC 29213,Additive 2×
same,Combination effect with 0.5× MIC betatide,[1]; SO-SAU19-1 (MRSA),Additive 2×
same,MIC,"[1]; ATCC29213, 24 h, Reference strain ATCC 29213",0.25 µg/mL
same,MIC,"[1]; MRSA, Clinical isolate SO-SAU19-1 (MRSA)",2050 µg/mL
"C[C@@H](O)[C@H]1C(=O)N2C(C(=O)O)=C(S[C@@H]3CN[C@H](C(=O)N(C)C)C3)[C@H](C)[C@H]12 [Meropenem, meropenem]",Combination effect with 0.5× MIC betatide,[2]; ATCC 19606,None
same,MIC,[2]; 24 h,512 µg/mL
same,MIC,"[2]; ATCC19606, 24 h",4 µg/mL
same,Combination effect with 0.5× MIC betatide,[2]; SO-ABA19-1 (ESBL-CARBA-D),None
same,Combination effect with 0.5× MIC betatide,[3]; ATCC 27853,None
same,MIC,[3]; 24 h,64 µg/mL
same,MIC,"[3]; ATCC27853, 24 h",0.5 µg/mL
same,Combination effect with 0.5× MIC betatide,[3]; SO-PAE19-1 (multidrug resistant),Additive 2×
CC[C@H](C)[C@H](NC(=O)CNC(=O)[C@H](CCCCN)NC(=O)[C@@H](NC(=O)[C@H](CC(C)C)NC(=O)[C@H](Cc1c[nH]c2ccccc12)NC(=O)[C@H](CCCNC(=N)N)NC(=O)[C@H](CC(=O)O)NC(=O)[C@H](CCSC)NC(C)=O)C(C)C)C(=O)N[C@@H](CC(C)C)C(=O)N[C@@H](CCC(N)=O)C(=O)N[C@@H](Cc1c[nH]c2ccccc12)C(=O)N[C@@H](CCCNC(=N)N)C(=O)N[C@@H](CCCCN)C(=O)N[C@H](C(=O)N[C@@H](CCCNC(=N)N)C(=O)N[C@@H](CCCNC(=N)N)C(=O)N[C@@H](CCCNC(=N)N)C(=O)N[C@@H](CCCNC(=N)N)C(=O)N[C@@H](CCCNC(=N)N)C(=O)N[C@@H](CCCNC(=N)N)C(=O)N[C@@H](CCCNC(=N)N)C(=O)N[C@@H](CCCNC(=N)N)C(N)=O)[C@@H](C)CC [Peptide 5] (Ac-MDRWLVKGILQWRKIRRRRRRRR-NH2),Reduction of viability HEK293 (24 μg/ml),[4],+
same,MIC E. coli,"[5]; K-12 MG1655, CLSI broth microdilution, CAMHB, 37°C, 24 h, visible growth, net peptide concentration",16 µg/mL
same,Reduction of viability E. coli (60 μg/ml),[6],++
same,UV-induced mutation frequencies relative to control,"[7]; 20 μg/mL, UV-C 20 mJ/cm2, RifR assay, three independent experiments",significantly reduced
same,Reduction of mutation frequency E. coli (20 μg/ml),"[7]; 20 μg/ml peptide, UV-C 20 mJ/cm^2, RifR assay, relative to untreated control",++
same,MIC S. epidermidis MRSE,[8],16 µg/mL
"CO/N=C(\C(=O)N[C@@H]1C(=O)N2C(C(=O)O)=C(CSc3nc(=O)c(=O)[nH]n3C)CS[C@H]12)c1csc(N)n1 [Ceftriaxone, ceftriaxone]",MIC,[5]; 24 h,1020 µg/mL
same,MIC,"[5]; MG1655, 24 h",0.06 µg/mL
same,Combination effect with 0.5× MIC betatide,[5]; MG1655,None
same,Combination effect with 0.5× MIC betatide,[5]; [10],Additive 4×
"C[C@@H](O)[C@H]1C(=O)N2C(C(=O)O)=C(S[C@@H]3CN[C@H](C(=O)Nc4cccc(C(=O)O)c4)C3)[C@H](C)[C@H]12 [Ertapenem, ertapenem]",Combination effect with 0.5× MIC betatide,[9]; ATCC 13883,Additive 4×
same,MIC,[9]; 24 h,32 µg/mL
same,MIC,"[9]; ATCC13883, 24 h",0.03 µg/mL
same,Combination effect with 0.5× MIC betatide,[9]; SO-KPN19-1 (ESBL-CARBA-D),Additive 2×
same,MIC,[5]; 24 h,64 µg/mL
same,MIC,"[5]; MG1655, 24 h",0.06 µg/mL
same,Combination effect with 0.5× MIC betatide,[5]; MG1655,None
same,Combination effect with 0.5× MIC betatide,[5]; [10],Additive 2×
